ChEMBL document CHEMBL2417377, “Hit-to-lead optimization and kinase selectivity of imidazo[1,2-a]quinoxalin-4-amine derived JNK1 inhibitors” (Bioorg Med Chem Lett, 2013)

Tests used:
Settings in all cases: PC-3
[1] = biological target: Serine/threonine-protein kinase 26 (Homo sapiens) (UniProt Q9P289); test: Inhibition of MST4 in human PC3 cell lysates at 10 uM using desthiobiotin-tagged ATP probe AX9989 followed by trypsinization by LC/MS analysis
[2] = biological target: Dual specificity mitogen-activated protein kinase kinase 1 (Homo sapiens) (UniProt Q02750); test: Inhibition of MAP2K1 in human PC3 cell lysates at 10 uM using desthiobiotin-tagged ATP probe AX9989 followed by trypsinization by LC/MS analysis
Dual specificity mitogen-activated protein kinase kinase 1 (Homo sapiens), sequence (Q02750 whole entry): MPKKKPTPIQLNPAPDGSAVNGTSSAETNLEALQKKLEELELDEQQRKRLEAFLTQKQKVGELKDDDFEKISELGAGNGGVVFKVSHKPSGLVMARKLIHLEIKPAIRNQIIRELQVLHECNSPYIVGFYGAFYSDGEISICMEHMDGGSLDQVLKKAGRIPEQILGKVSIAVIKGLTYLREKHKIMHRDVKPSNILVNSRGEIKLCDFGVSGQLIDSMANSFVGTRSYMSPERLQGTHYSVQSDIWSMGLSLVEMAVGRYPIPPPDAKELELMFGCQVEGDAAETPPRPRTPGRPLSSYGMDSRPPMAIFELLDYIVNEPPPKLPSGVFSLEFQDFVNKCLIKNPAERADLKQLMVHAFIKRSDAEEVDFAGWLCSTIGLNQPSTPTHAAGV

[3] = biological target: Serine/threonine-protein kinase 25 (Homo sapiens) (UniProt O00506); test: Inhibition of YSK1 in human PC3 cell lysates at 10 uM using desthiobiotin-tagged ATP probe AX9989 followed by trypsinization by LC/MS analysis
Serine/threonine-protein kinase 25 (Homo sapiens), sequence (O00506 whole entry, looked up): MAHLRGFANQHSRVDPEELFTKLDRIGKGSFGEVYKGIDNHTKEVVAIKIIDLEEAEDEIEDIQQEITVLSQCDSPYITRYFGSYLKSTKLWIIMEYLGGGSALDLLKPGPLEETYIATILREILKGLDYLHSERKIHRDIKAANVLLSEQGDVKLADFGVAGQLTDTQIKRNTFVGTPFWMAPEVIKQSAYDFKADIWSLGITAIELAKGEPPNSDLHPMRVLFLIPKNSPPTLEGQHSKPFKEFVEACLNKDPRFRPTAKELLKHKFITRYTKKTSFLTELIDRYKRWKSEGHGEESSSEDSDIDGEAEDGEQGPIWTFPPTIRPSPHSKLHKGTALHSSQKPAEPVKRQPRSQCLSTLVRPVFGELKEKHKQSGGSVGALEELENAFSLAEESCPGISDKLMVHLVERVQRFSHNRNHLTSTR

[4] = biological target: p38 delta/gamma (Homo sapiens) (UniProt O15264+P53778); test: Inhibition of p38delta/gamma in human PC3 cell lysates at 10 uM using desthiobiotin-tagged ATP probe AX9989 followed by trypsinization by LC/MS analysis; type: protein assay
[5] = biological target: T1, Ephrin type-B receptor 2 (Homo sapiens) (UniProt P29323); test: Inhibition of EphB2 in human PC3 cell lysates at 10 uM using desthiobiotin-tagged ATP probe AX9989 followed by trypsinization by LC/MS analysis
T1 sequence (whole entry): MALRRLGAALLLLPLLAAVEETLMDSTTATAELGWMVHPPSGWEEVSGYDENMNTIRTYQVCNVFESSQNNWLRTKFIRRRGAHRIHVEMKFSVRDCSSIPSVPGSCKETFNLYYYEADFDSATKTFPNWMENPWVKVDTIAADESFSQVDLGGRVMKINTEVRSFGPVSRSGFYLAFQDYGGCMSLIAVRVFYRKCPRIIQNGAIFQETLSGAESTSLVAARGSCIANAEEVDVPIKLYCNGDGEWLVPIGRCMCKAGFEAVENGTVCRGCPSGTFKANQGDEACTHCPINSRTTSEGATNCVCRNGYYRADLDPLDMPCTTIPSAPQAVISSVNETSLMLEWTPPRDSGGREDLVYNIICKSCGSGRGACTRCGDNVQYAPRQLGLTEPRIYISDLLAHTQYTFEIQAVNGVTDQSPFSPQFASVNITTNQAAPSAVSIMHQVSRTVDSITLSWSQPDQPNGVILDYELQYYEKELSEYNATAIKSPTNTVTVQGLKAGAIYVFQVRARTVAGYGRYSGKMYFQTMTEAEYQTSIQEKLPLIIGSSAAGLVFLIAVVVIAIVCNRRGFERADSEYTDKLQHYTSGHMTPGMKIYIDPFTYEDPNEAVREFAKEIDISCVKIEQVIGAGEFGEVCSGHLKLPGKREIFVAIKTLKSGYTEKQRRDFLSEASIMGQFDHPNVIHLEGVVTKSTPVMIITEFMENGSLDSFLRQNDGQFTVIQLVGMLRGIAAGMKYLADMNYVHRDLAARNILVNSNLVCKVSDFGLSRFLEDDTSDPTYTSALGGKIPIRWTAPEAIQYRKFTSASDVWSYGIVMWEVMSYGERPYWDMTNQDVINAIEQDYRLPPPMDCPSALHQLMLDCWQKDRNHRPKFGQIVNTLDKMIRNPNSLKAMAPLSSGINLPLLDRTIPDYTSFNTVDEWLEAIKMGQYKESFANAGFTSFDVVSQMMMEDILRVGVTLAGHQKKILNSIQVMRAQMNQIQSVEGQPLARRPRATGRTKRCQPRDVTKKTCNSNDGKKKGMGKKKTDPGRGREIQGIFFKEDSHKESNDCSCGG

[6] = biological target: Rho-associated protein kinase 2 (Homo sapiens) (UniProt O75116); test: Inhibition of ROCK2 in human PC3 cell lysates at 10 uM using desthiobiotin-tagged ATP probe AX9989 followed by trypsinization by LC/MS analysis
Rho-associated protein kinase 2 (Homo sapiens), sequence (O75116 whole entry, looked up): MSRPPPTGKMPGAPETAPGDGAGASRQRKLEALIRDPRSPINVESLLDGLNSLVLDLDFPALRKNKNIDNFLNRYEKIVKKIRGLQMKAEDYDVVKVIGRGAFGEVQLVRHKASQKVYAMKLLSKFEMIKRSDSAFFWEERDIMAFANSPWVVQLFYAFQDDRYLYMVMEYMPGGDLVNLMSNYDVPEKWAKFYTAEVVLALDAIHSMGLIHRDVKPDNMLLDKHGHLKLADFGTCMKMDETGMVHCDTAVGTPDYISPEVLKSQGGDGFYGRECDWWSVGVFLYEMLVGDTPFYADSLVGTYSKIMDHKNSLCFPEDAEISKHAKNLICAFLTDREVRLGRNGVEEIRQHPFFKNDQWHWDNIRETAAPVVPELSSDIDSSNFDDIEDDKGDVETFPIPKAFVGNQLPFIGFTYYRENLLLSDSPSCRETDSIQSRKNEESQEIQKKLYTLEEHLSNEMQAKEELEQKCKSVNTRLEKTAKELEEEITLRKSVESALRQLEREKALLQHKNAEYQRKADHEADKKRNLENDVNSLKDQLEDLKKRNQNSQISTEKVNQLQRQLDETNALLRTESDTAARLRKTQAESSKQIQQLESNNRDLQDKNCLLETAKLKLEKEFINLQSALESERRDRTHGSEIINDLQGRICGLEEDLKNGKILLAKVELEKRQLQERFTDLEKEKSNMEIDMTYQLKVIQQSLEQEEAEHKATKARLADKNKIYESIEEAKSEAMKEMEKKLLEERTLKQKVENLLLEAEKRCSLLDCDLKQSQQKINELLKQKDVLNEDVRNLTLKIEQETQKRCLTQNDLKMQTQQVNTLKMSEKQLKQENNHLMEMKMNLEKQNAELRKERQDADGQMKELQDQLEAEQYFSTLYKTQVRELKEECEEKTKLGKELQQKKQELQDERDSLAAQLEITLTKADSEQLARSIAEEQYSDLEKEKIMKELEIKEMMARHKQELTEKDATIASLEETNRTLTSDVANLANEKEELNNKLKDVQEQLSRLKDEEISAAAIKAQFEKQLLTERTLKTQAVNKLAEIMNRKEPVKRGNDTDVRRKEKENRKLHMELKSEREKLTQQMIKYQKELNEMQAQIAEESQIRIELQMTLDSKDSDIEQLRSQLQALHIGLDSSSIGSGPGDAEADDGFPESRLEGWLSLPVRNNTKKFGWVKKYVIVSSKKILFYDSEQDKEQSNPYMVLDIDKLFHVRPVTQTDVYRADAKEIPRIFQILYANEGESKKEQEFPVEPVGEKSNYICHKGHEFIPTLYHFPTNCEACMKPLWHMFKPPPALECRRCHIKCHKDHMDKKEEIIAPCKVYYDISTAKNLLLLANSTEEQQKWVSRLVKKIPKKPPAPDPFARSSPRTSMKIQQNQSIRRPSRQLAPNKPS

[7] = biological target: Glycogen synthase kinase-3 beta (Homo sapiens) (UniProt P49841); test: Inhibition of GSK3beta in human PC3 cell lysates at 10 uM using desthiobiotin-tagged ATP probe AX9989 followed by trypsinization by LC/MS analysis
Glycogen synthase kinase-3 beta (Homo sapiens), sequence (P49841 whole entry, looked up): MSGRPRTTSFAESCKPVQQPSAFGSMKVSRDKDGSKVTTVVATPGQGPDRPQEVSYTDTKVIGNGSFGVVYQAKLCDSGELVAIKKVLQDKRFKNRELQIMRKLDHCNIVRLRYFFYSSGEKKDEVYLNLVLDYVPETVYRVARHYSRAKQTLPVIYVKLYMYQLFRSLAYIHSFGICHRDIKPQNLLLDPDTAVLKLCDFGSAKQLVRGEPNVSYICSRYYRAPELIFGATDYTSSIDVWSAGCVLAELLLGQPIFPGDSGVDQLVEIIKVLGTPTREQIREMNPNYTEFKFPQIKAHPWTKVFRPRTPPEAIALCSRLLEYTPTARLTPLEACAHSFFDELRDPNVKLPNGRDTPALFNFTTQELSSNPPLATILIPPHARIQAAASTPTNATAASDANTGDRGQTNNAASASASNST

[8] = biological target: Mitogen-activated protein kinase 14 (Homo sapiens) (UniProt Q16539); test: Inhibition of p38alpha in human PC3 cell lysates at 10 uM using desthiobiotin-tagged ATP probe AX9989 followed by trypsinization by LC/MS analysis
Mitogen-activated protein kinase 14 (Homo sapiens), sequence (Q16539 whole entry): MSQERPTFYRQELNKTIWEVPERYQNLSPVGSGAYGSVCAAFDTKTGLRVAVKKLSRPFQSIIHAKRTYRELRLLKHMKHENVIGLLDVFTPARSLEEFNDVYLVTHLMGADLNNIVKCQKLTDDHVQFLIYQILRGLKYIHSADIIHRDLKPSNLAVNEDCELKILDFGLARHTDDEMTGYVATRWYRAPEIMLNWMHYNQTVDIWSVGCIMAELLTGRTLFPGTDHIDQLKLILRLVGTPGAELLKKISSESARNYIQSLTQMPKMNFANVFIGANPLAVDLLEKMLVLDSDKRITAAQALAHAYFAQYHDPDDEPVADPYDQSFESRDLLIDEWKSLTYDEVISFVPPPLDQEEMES

[9] = biological target: Serine/threonine-protein kinase WNK4 (Homo sapiens) (UniProt Q96J92); test: Inhibition of Wnk4 in human PC3 cell lysates at 10 uM using desthiobiotin-tagged ATP probe AX9989 followed by trypsinization by LC/MS analysis
Serine/threonine-protein kinase WNK4 (Homo sapiens), sequence (Q96J92 whole entry): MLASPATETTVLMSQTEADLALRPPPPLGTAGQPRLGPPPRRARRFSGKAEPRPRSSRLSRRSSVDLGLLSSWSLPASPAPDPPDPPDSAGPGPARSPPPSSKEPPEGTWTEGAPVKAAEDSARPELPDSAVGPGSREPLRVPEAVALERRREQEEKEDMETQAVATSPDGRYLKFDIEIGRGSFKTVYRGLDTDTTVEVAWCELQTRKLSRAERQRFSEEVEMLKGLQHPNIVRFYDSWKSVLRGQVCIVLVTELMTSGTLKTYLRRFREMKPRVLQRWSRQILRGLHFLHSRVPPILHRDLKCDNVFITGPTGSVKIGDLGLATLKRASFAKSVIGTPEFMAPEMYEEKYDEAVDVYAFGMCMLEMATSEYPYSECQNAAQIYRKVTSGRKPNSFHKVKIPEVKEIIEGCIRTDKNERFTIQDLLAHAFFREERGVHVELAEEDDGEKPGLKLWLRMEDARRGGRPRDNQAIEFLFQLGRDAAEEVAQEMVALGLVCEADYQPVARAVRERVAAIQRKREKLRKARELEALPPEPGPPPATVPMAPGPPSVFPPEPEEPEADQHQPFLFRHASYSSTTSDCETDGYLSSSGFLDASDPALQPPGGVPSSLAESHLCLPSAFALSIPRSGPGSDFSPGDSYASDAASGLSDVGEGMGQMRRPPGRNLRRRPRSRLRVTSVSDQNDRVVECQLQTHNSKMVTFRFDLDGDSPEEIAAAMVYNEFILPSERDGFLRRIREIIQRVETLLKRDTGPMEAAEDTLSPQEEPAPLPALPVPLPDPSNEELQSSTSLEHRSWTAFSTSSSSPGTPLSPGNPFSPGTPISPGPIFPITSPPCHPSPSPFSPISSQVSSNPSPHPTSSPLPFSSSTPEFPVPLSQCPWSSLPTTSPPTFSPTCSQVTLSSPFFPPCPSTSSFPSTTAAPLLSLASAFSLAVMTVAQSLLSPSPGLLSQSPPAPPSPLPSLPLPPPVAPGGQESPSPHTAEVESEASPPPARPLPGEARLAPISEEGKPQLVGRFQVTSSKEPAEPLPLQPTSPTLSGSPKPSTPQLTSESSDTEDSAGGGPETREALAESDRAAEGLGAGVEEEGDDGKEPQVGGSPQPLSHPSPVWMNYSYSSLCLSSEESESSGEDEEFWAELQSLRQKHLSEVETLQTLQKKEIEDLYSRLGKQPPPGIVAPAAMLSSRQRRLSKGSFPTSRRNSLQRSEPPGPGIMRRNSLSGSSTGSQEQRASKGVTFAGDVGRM

[10] = biological target: Casein kinase II subunit alpha' (Homo sapiens) (UniProt P19784); test: Inhibition of CK2alpha2 in human PC3 cell lysates at 10 uM using desthiobiotin-tagged ATP probe AX9989 followed by trypsinization by LC/MS analysis
Casein kinase II subunit alpha' (Homo sapiens), sequence (P19784 whole entry, looked up): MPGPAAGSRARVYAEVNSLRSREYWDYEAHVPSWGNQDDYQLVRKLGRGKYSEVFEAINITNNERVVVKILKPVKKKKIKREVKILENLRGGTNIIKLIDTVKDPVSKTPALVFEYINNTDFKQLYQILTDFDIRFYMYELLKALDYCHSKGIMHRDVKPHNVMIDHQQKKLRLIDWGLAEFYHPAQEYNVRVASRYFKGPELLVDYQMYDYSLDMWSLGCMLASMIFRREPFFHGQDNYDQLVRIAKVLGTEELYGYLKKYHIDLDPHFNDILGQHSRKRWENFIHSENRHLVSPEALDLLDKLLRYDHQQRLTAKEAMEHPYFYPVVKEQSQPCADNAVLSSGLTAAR

[11] = biological target: T2, Serine/threonine-protein kinase D2 (Homo sapiens) (UniProt Q9BZL6); test: Inhibition of PKD2 in human PC3 cell lysates at 10 uM using desthiobiotin-tagged ATP probe AX9989 followed by trypsinization by LC/MS analysis
T2 sequence (whole entry): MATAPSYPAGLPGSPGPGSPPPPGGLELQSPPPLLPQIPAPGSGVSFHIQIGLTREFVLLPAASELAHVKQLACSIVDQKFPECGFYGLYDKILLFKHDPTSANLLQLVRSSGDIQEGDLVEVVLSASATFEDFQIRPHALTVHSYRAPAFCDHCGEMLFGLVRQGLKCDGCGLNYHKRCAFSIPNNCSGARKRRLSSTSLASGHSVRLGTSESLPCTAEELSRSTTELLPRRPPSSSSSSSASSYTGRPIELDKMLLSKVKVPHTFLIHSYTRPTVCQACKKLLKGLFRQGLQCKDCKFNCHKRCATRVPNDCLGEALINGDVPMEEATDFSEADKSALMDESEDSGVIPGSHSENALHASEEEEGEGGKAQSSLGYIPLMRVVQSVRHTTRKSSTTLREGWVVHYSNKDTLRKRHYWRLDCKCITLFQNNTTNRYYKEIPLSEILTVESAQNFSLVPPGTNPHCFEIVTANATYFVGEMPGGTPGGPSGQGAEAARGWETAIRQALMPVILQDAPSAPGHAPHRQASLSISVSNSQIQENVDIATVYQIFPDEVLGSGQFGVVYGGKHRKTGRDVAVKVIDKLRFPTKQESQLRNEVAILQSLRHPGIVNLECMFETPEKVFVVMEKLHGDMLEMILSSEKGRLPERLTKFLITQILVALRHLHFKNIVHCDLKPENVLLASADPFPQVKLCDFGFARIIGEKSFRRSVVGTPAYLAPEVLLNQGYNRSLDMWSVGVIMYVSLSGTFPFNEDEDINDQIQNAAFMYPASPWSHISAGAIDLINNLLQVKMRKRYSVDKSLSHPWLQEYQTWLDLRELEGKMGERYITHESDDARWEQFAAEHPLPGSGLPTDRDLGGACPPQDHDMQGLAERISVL

Serine/threonine-protein kinase 26 (Homo sapiens), sequence (Q9P289 2-416 limits assumed): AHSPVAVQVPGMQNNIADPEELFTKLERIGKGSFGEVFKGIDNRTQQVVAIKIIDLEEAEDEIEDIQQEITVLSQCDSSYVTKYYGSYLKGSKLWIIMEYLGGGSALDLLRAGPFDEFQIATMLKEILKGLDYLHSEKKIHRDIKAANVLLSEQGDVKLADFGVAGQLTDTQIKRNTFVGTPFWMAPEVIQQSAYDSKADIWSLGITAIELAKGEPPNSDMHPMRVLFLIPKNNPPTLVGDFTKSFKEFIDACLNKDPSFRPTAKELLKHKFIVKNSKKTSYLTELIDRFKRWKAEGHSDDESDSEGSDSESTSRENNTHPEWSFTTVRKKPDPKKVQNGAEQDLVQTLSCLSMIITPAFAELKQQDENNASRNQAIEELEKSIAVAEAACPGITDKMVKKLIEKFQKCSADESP

inhibition [1] [%]	inhibition [2] [%]	inhibition [3] [%]	inhibition [4] [%]	inhibition [5] [%]	inhibition [6] [%]	inhibition [7] [%]	inhibition [8] [%]	inhibition [9] [%]	inhibition [10] [%]	inhibition [11] [%]	Structure (SMILES)
< 35	< 35	< 35	44.4	< 35	< 35	96	< 35	< 35	< 35	51.7	NC(=O)c1ccc2nc(N[C@H]3CC[C@H](O)CC3)c3nccn3c2c1
< 35	< 35	< 35	< 35	< 35	< 35	< 35	< 35	< 35	< 35	< 35	O=C(NC1(Cc2ccc(F)cc2)CC1)c1ccc2nc(N[C@H]3CC[C@H](O)CC3)c3nccn3c2c1
< 35	< 35	< 35	< 35	< 35	< 35	< 35	< 35	< 35	< 35	< 35	O=C(NC1(c2ccccc2)CCC1)c1ccc2nc(N[C@H]3CC[C@H](O)CC3)c3nccn3c2c1
< 35	< 35	< 35	< 35	< 35	< 35	< 35	< 35	< 35	< 35	< 35	C[C@@H](NC(=O)c1ccc2nc(N[C@H]3CC[C@H](O)CC3)c3nccn3c2c1)c1ccccc1
< 35	< 35	< 35	< 35	< 35	< 35	< 35	< 35	< 35	< 35	< 35	CC[C@@H](NC(=O)c1ccc2nc(N[C@H]3CC[C@H](O)CC3)c3nccn3c2c1)c1ccccc1
< 35	< 35	< 35	< 35	< 35	< 35	< 35	< 35	< 35	< 35	< 35	C[C@H](NC(=O)c1ccc2nc(N[C@H]3CC[C@H](O)CC3)c3nccn3c2c1)c1ccccc1
< 35	< 35	< 35	< 35	< 35	< 35	< 35	< 35	< 35	< 35	< 35	O=C(N[C@H](CO)c1ccccc1)c1ccc2nc(N[C@H]3CC[C@H](O)CC3)c3nccn3c2c1
< 35	< 35	< 35	< 35	< 35	< 35	< 35	< 35	< 35	< 35	< 35	O=C(NC1(c2ccccc2)CC1)c1ccc2nc(N[C@H]3CC[C@H](O)CC3)c3nccn3c2c1
< 35	< 35	< 35	< 35	< 35	< 35	< 35	< 35	< 35	< 35	< 35	CCC[C@@H](NC(=O)c1ccc2nc(N[C@H]3CC[C@H](O)CC3)c3nccn3c2c1)c1ccccc1
< 35	< 35	< 35	< 35	< 35	< 35	< 35	< 35	< 35	< 35	< 35	CC(C)(NC(=O)c1ccc2nc(N[C@H]3CC[C@H](O)CC3)c3nccn3c2c1)c1ccccc1
< 35	< 35	< 35	57.7	< 35	< 35	98.6	< 35	< 35	40.6	< 35	O=C(O)c1ccc2nc(N[C@H]3CC[C@H](O)CC3)c3nccn3c2c1
< 35	< 35	< 35	< 35	< 35	< 35	< 35	< 35	< 35	< 35	< 35	O=C(NC1(c2ccc(F)cc2)CC1)c1ccc2nc(N[C@H]3CC[C@H](O)CC3)c3nccn3c2c1
